These results are taken from patent publication US9920010B2, “CXCR7 receptor modulators” (IDORSIA PHARMACEUTICALS LTD, priority 2013, dated 2018).

The target in the experiment is T1, CXCR7 (Homo sapiens, UniProt P25106).
T1 construct: host or cells: CHO-K1 (PathHunter CHO-K1 CXCR7 b-arrestin cell line, stably transfected)
The experiment can be described thus: PathHunter CHO-K1 CXCR7 b-arrestin recruitment assay (CXCR7 agonistic activity). The experiment is classed as cell-based. The settings on record: PathHunter CHO-K1 CXCR7 b-arrestin cell line. In short, it runs like this: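 Stable CHO-K1 line with C-terminally ProLink-tagged CXCR7 and β-arrestin 2–EA fusion; β-arrestin recruitment restores β-gal activity, read by chemiluminescence after 1 h RT detection. Cells seeded 24 h, starved in OPTIMEM 3–4 h, exposed to compounds 90 min at 37 °C in HBSS/HEPES/BSA. Geometric-mean EC50 from repeated measurements.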

T1 sequence (P25106 whole entry): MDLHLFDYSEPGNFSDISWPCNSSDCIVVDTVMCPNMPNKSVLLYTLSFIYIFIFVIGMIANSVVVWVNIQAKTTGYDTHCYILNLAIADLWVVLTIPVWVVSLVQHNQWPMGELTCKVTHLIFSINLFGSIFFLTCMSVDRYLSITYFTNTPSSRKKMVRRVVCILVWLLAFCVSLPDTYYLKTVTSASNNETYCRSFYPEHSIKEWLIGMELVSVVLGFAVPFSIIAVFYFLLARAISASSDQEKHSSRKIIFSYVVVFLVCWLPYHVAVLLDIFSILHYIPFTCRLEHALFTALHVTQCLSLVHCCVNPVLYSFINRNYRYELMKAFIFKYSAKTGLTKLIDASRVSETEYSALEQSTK
T1 sequence (P32121 whole entry partner): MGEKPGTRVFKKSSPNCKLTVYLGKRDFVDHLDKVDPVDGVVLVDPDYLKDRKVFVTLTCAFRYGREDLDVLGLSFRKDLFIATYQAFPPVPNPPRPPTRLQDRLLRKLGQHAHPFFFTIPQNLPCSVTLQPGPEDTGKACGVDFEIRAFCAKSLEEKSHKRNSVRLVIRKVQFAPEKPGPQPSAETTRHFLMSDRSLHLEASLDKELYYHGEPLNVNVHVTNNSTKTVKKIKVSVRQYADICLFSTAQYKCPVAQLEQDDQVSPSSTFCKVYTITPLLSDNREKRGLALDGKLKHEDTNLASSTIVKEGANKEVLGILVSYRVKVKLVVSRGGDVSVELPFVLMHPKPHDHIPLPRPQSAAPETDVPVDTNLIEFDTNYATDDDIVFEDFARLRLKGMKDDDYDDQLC

In turn, `CCCCN(C)CCN(Cc1ccccc1)C(=O)CNc1cccc2c1CCN(C(=O)CC)C2` [Example 31, N-Benzyl-N-[2-(butyl-methyl-amino)-ethyl]-2-(2-propionyl-1,2,3,4-tetrahydro-isoquinolin-5-ylamino)-acetamide] displayed an EC50 of 13 nM. Under `CCN1CCc2cccc(NCC(=O)N(CCN3CCCC3)Cc3ccccc3C(F)(F)F)c2C1` [compound 489, 2-(2-Ethyl-1,2,3,4-tetrahydro-isoquinolin-8-ylamino)-N-(2-pyrrolidin-1-yl-ethyl)-N-(2-trifluoromethyl-benzyl)-acetamide] stands 7 nM.

The molecule `CNCCN(Cc1ccccc1C(F)(F)F)C(=O)CNc1cccc2c1CCN(C(=O)C(C)(C)C)C2` [compound 390] had a half-maximal effective concentration (EC50) of 83 nM. For the molecule `C=CCN1CCc2cccc(NCC(=O)N(CCN(C)C)Cc3ccccc3C(F)(F)F)c2C1` [compound 466, 2-(2-Allyl-1,2,3,4-tetrahydro-isoquinolin-8-ylamino)-N-(2-dimethylamino-ethyl)-N-(2-trifluoromethyl-benzyl)-acetamide], the EC50 turned out to be 13 nM. In the case of `CCN1CCc2c(cccc2NCC(=O)N(CCN(C)C)Cc2ccccc2)C1` [compound 107, N-Benzyl-N-(2-dimethylamino-ethyl)-2-(2-ethyl-1,2,3,4-tetrahydro-isoquinolin-5-ylamino)-acetamide] it was 43 nM.

The molecule `CCN1CCc2cccc(NCC(=O)N(CCc3ccccc3C)CCN(C)C)c2C1` [compound 537] returned an EC50 of 217 nM.

`O=C(CNc1cccc2c1CN(CC1CC1)CC2)N(CCN1CCC(F)(F)CC1)Cc1ncccc1C(F)(F)F` [compound 476] returned an EC50 of 15 nM.

In turn, `CCN1CCc2cccc(NCC(=O)N(CCN(C)C)Cc3ccc(Cl)cc3)c2C1` [compound 502] had an EC50 of 113 nM. In the case of `CCN1CCc2cccc(NCC(=O)N(CCc3ccccc3)CCN(C)C)c2C1` [compound 542] it was 113 nM. As for `CN(C)CCN(Cc1ccncn1)C(=O)CNc1cccc2c1CCN(CC1CC1)C2` [Example 255, 2-(2-Cyclopropylmethyl-1,2,3,4-tetrahydro-isoquinolin-5-ylamino)-N-(2-dimethylamino-ethyl)-N-pyrimidin-4-ylmethyl-acetamide], it took 390 nM to reach a half-maximal effect (EC50).

`CCCC(=O)N1CCc2c(cccc2NCC(=O)N(CCN(C)C)Cc2ccccc2)C1` [compound 114, N-Benzyl-2-(2-butyryl-1,2,3,4-tetrahydro-isoquinolin-5-ylamino)-N-(2-dimethylamino-ethyl)-acetamide] gave an EC50 of 36 nM. In the case of `CNCCN(Cc1ncccc1C(F)(F)F)C(=O)CNc1cccc2c1CCN(C(=O)OCCF)C2` [compound 425, 5-({[(2-Methylamino-ethyl)-(3-trifluoromethyl-pyridin-2-ylmethyl)-carbamoyl]-methyl}-amino)-3,4-dihydro-1H-isoquinoline-2-carboxylic acid 2-fluoro-ethyl ester] it was 27 nM. Under `CCN1CCc2cccc(NCC(=O)N(CCN(C)C)Cc3ccc(F)cc3C(F)(F)F)c2C1` [compound 523] stands 58 nM; under `CN(C)CCN(Cc1ncccc1C(F)(F)F)C(=O)CNc1cccc2c1CN(CC1CC1)CC2` [compound 566, 2-(2-Cyclopropylmethyl-1,2,3,4-tetrahydro-isoquinolin-8-ylamino)-N-(2-dimethylamino-ethyl)-N-(3-trifluoromethyl-pyridin-2-ylmethyl)-acetamide], 3 nM; under `O=C(/C=C/c1cccc2c1CCN(CC1CC1)C2)N(CCO)Cc1ccccc1` [Example 138, (E)-N-Benzyl-3-(2-cyclopropylmethyl-1,2,3,4-tetrahydro-isoquinolin-5-yl)-N-(2-hydroxy-ethyl)-acrylamide], 55 nM. With `CCC(C)N1CCc2c(cccc2NCC(=O)N(CCN(C)C)Cc2ccccc2C(F)(F)F)C1` (racemic) [Example 356, rac-2-(2-sec-Butyl-1,2,3,4-tetrahydro-isoquinolin-5-ylamino)-N-(2-dimethylamino-ethyl)-N-(2-trifluoromethyl-benzyl)-acetamide], a half-maximal response (EC50) required 6 nM. For the molecule `CC(C)(O)CN(Cc1ccccc1C(F)(F)F)C(=O)CNc1cccc2c1CCN(CC1CC1)C2` [Example 241, 2-(2-Cyclopropylmethyl-1,2,3,4-tetrahydro-isoquinolin-5-ylamino)-N-(2-hydroxy-2-methyl-propyl)-N-(2-trifluoromethyl-benzyl)-acetamide], the EC50 worked out at 8 nM. `CCN1Cc2c(cccc2NCC(=O)N(CCN(C)C)Cc2ccccc2C(F)(F)F)CC1=O` [compound 543] displayed an EC50 of 84 nM.

Consider `O=C(CNc1cccc2c1CN(CC1CC1)CC2)N(CCN1CC(F)(F)C1)Cc1ccccc1C(F)(F)F` [compound 484], for which the EC50 worked out at 79 nM. Regarding `O=C(CNc1cccc2c1CCN(CC1CC1)C2)N(CCN1CCC(F)(F)C1)Cc1ncccc1C(F)(F)F` [Example 284, 2-(2-Cyclopropylmethyl-1,2,3,4-tetrahydro-isoquinolin-5-ylamino)-N-[2-(3,3-difluoro-pyrrolidin-1-yl)-ethyl]-N-(3-trifluoromethyl-pyridin-2-ylmethyl)-acetamide], the EC50 was determined as 18 nM. Take `CN(C)CCN(Cc1c(F)cccc1F)C(=O)CNc1cccc2c1CCN(CC1CC1)C2` [Example 270, 2-(2-Cyclopropylmethyl-1,2,3,4-tetrahydro-isoquinolin-5-ylamino)-N-(2,6-difluoro-benzyl)-N-(2-dimethylamino-ethyl)-acetamide]: the EC50 turned out to be 7 nM. `CN(C)CCN(Cc1ccccc1)C(=O)CNc1cccc2c1CN(C(=O)c1ccccc1)CC2` [compound 195, 2-(2-Benzoyl-1,2,3,4-tetrahydro-isoquinolin-8-ylamino)-N-benzyl-N-(2-dimethylamino-ethyl)-acetamide]: the EC50 turned out to be 12 nM. In the case of `COCCN1CCc2c(CCC(=O)N(CCN(C)C)Cc3ncccc3C(F)(F)F)cccc2C1` [Example 336, N-(2-Dimethylamino-ethyl)-3-[2-(2-methoxy-ethyl)-1,2,3,4-tetrahydro-isoquinolin-5-yl]-N-(3-trifluoromethyl-pyridin-2-ylmethyl)-propionamide] it was 47 nM; in that of `O=C(CNc1cccc2c1CCN(CC1CC1)C2)N(Cc1ccccc1C(F)(F)F)C1CCOCC1` [Example 74, 2-(2-Cyclopropylmethyl-1,2,3,4-tetrahydro-isoquinolin-5-ylamino)-N-(tetrahydro-pyran-4-yl)-N-(2-trifluoromethyl-benzyl)-acetamide], 49 nM; in that of `CN(C)CCN(Cc1ccccc1)C(=O)CNc1cccc2c1C(=O)N(C)CC2` [compound 184], 270 nM. The molecule `CC(C)(O)CN(Cc1ncccc1Cl)C(=O)/C=C/c1cccc2c1CCN(C(=O)[C@H]1C[C@H]1F)C2` (racemic) [Example 331, rac-(E)-N-(3-Chloro-pyridin-2-ylmethyl)-3-[2-((1R*,2R*)-2-fluoro-cyclopropanecarbonyl)-1,2,3,4-tetrahydro-isoquinolin-5-yl]-N-(2-hydroxy-2-methyl-propyl)-acrylamide] displayed an EC50 of 314 nM. Under `CCN(Cc1ccccc1Cl)C(=O)/C=C/c1cccc2c1CCN(C(=O)OC(C)(C)C)C2` [Example 92, 5-{(E)-2-[(2-Chloro-benzyl)-ethyl-carbamoyl]-vinyl}-3,4-dihydro-1H-isoquinoline-2-carboxylic acid tert-butyl ester] stands 413 nM. Under `CC(C)(O)CN(Cc1ncccc1Cl)C(=O)CNc1cccc2c1CN(CC1CC1)CC2` [compound 487] stands 100 nM.
